Experimental data taken from patent US20110045102A1, “Cancer chemotherapy compositions comprising PI3K pathway modulators and triptolide” (priority 2005, published 2011).

What was measured:
[1] = tested on: OCC1-SEAP intraperitoneal tumors; test: Nude mouse intraperitoneal OCC1-SEAP tumor model, plasma SEAP (Example I); format: in vivo, athymic nude mice
Protocol: Athymic nude mice (Nu/Nu; Charles River Laboratories, Wilmington, Mass.) weighing about 25 g were used for in vivo studies.
Three mice were injected intraperitoneally with 1×10^7 OCC1-SEAP-12 cells. The experimental treatments began after 1 week. […] Alternatively, four mice with well-developed tumors (2-4 weeks after injection) were treated with a high dose of carboplatin (60 mg/kg) three times over a period of 4 days. After death all visible intraperitoneal tumors were dissected out and weighed.
Blood samples were collected from saphenous vein lancings three times per week into heparinized capillary tubes. The capillary tubes were centrifuged and the plasma samples were frozen at −20° C. until the time of SEAP assay. Blood samples were taken for SEAP assay from the mice within 24 hours of death 2-3 weeks after intraperitoneal injection of OCC1-SEAP cells.
Blood plasma and cell culture medium samples were assayed for SEAP activity using the Great EscAPe SEAP fluorescence detection kit (Clontech Laboratories, Palo Alto, Calif.). SEAP is secreted at a constant rate by transfected tumor cells and distributed throughout the body or into the culture medium. SEAP is heat stable, so any endogenous alkaline phosphatase activity in blood plasma is destroyed by heat treatment of the samples (65° C. for 30 minutes) during the assay. The SEAP enzyme in each sample acts on the substrate 4-methylumbelliferyl phosphate during a 1 hour incubation at room temperature to produce a fluorescent product with excitation and emission peaks at 360 and 449 nm, respectively. A fluorimeter is then used to measure SEAP activity. The intra-assay and inter-assay coefficients of variation were 2.5% and 18.8%, respectively. Blood plasma samples were diluted 1:100 prior to the assay to bring values within the linear range of the standard curve.

[2] = tested on: caspase-3; test: Western blot for active caspase-3 (Example II); format: cell-based, human; conditions: 24 h; TPL 100 ng/ml, carboplatin 50
[3] = tested on: OCC1-SEAP tumor; test: Nude mouse tumor model, intraperitoneal OCC1-SEAP cells, plasma SEAP (Example II); format: in vivo
Text: Athymic nude mice (NCR Nu/Nu) were either purchased from Taconic (Germantown, N.Y.) or bred in-house at Washington State University, Pullman, Wash. The OCC1-SEAP cells were collected in Hank's balanced salt solution and counted prior to injection. Treatments were initiated 7 to 10 days following an intraperitoneal inoculation of mice with 1×10^7 OCC1-SEAP cells, as described above, in Example I.
Stock solutions of carboplatin (paraplatin; Bristol-Myers Squibb, Princeton, N.J.) and TPL (Calbiochem, CA), were prepared in sterile filtered PBS and DMSO, respectively. Animals received intraperitoneal injections of either vehicle controlled (PBS containing 4% DMSO), or carboplatin (60 mg/kg), alone, or in combination with TPL (0-1.0 mg/kg), every other day for 5 days. Alternatively, TPL (0.15 mg/kg) was injected every day for 10 days. For these experiments, carboplatin was administered under the same schedule of every other day for 5 days. Some mice were also treated with 40 mg/kg of LY294002 every other day for 5 days, with an intraperitoneal injection in the presence of TPL and carboplatin. Blood samples were collected into capillary tubes from saphenous vein lancings at regular intervals during and following treatments. The capillary tubes were centrifuged and the plasma samples were frozen at −20° C., until the time of SEAP assay. The Washington State University Animal Care and Use Committee approved all procedures.
Blood plasma and cell culture medium samples were assayed for SEAP activity using the Great EscAPe SEAP fluorescence detection kit (Clontech Laboratories, Palo Alto, Calif.), as described above in Example I. Blood plasma samples were diluted 1:100, prior to the assay to bring values within the linear range of the standard curve. The intraassay and interassay coefficients of variation were 2.5% and 18.8%, respectively. In the case of the experiments in which mice were treated with a combination of TPL, LY294002 and carboplatin, there was some variation in the extent of tumor growth in the control mice. In order to better compare response to treatment across experiments, the SEAP assay data between experiments were normalized by dividing each data point by the overall mean of all SEAP measurements from that experiment and up, through day 18. The normalized data then reflect the relative tumor burden of each mouse, compared to others in the experimental group, and can be combined across experiments.

[4] = tested on: solid tumor types; conditions: TPL 0.15 mg/kg; cited from earlier work
[5] = tested on: OCC1-SEAP ovarian cancer cells; test: Cell survival by DNA content of culture wells (Example II); format: cell-based, human; conditions: 48 hours; triptolide 100 ng/ml, carboplatin 50 (FIG. 8 legend: mg/ml)
Protocol: Cell survival was assessed as the number of cells remaining in culture, following exposure to treatments. The DNA content of individual culture wells was used as an indication of cell number. Cells plated in 24 well culture plates were allowed to approach confluence (80%) in Ham's F-12 medium plus 10% BCS. Cultures were then incubated in DMEM, plus 0.1% BSA and 0.1% BCS, in the presence of vehicle control, carboplatin (0-100 μg/ml), Triptolide (100 ng/ml) or a combination of these for 24 to 96 hrs. Media aliquots were taken when appropriate for SEAP analysis. The DNA was measured fluorometrically, as described above, in Example I. Briefly, the fluorescence of an aliquot of sonicated cell suspension, into which SYBR Green I fluorescent dye (Molecular Probes, Eugene, Oreg.), had been incorporated was measured.

[6] = TPL 0.15 mg/kg, nude mice; cited from earlier work
[7] = tested on: OCC1-SEAP cell cultures; test: DNA fragmentation (laddering) on agarose gel (Example II); format: cell-based, human; conditions: 48 hr; TPL 100 ng/ml, carboplatin 50 μg/ml
Protocol: Following 48 h to 72 h treatment incubations, cells were suspended into culture medium and pelleted in tubes. DNA was isolated from collected cells using a Puregene™ DNA isolation kit (Gentra Systems, Minneapolis, Minn.). The quantity and purity of nucleic acid preparations were estimated by measuring the absorbance of each sample (A260/A280). DNA preparations (10 μg/well) were loaded onto 1.2% agarose gels and visualized with ethidium bromide stain.

[8] = tested on: breast cancer xenografts; conditions: TPL 0.5 mg/kg; cited from earlier work
[9] = tested on: caspase 3; test: Western blot for active caspase 3 (Example III); format: cell-based, human; conditions: LY294002 10 μM, carboplatin 50 μg/ml
Protocol: The OCC1-SEAP-12 cells were grown to 80% confluence. Cultures were incubated in DMEM plus 0.1% bovine serum albumin (BSA) and 0.1% BCS to which either vehicle control, carboplatin (0-50 μg/ml), LY294002 (0-20 μM) or combinations of these treatments. Following 24, 48 or 72 hr cells were lysed with sample buffer (62.5 mM Tris-HCl, pH 6.8, 2% SDS, 5% glycerol, […], 0.5% β-mercaptoethanol). Total cell lysates were subjected to SDS polyacrylamide gel electrophoresis 9 page) and transferred to PVDF membranes (Millipore, Bedford, Mass.). Membranes were immunoblotted with antibodies to both the phosphorylated and non-phosphorylated forms of […] (Cell Signaling Technology, Beverly, Mass.), or alternatively, with antibodies to cleaved and full length caspase-3 (Cell Signaling Technology, Beverly, Mass.).

[10] = tested on: Akt; test: Western blot for Akt phosphorylation (Example III); format: cell-based, human; conditions: 6 hr and 24 hr; LY294002 10 (FIG. 18 legend: mM), carboplatin 50
Protocol: The OCC1-SEAP-12 cells were grown to 80% confluence. […] […] Total cell lysates were subjected to SDS polyacrylamide gel electrophoresis 9 page) and transferred to PVDF membranes (Millipore, Bedford, Mass.). Membranes were immunoblotted with antibodies to both the phosphorylated and non-phosphorylated forms of […] (Cell Signaling Technology, Beverly, Mass.), or alternatively, with antibodies to cleaved and full length caspase-3 (Cell Signaling Technology, Beverly, Mass.).

[11] = tested on: OCC1-SEAP-12 ovarian cancer cells; format: in vivo
Protocol: Athymic nude mice were obtained and inoculated intraperitoneally with OCC1-SEAP-12 cells as described above in Examples I and II. Animals received injections of either vehicle control (PBS containing 25% DMSO), or carboplatin (60 mg/kg) alone, or in combination with LY294002 (50 mg/kg) every other day for 6 days. Blood samples were collected into capillary tubes from saphenous vein lancings at regular intervals during and following treatments. Capillary tubes were centrifuged, and the plasma samples were frozen (−20° C.), until the time of SEAP assay. The Washington State University Animal Care and Use Committee approved all procedures.
Blood plasma and cell culture medium samples were assayed for SEAP activity using the Great EscAPe SEAP fluorescence detection kit (Clontech Laboratories, Palo Alto, Calif.) as described above in Examples I and II. Blood plasma samples were diluted 1:100 prior to the assay to bring values within the linear range of the standard curve. The intraassay and interassay coefficients of variation were 2.5% and 18.8%, respectively.

[12] = tested on: OCC1-SEAP-12 cells; test: Growth assay, [3H] thymidine incorporation (Example III); format: cell-based, human; conditions: LY294002, 18h treatment
Protocol: Cell proliferation was analyzed by determining the amount of [^3H] thymidine incorporation Into newly synthesized DNA. The OCC1-SEAP-12 cells were plated in 24 well plates in Ham's F-12 medium plus 10% BCS and allowed to reach 50 to 70% confluence. Following a 48 hr serum starvation, the culture medium was changed to Dulbecco's Modified Eagle Medium (DMEM) plus 0.1% BSA and 0.1% BCS containing either vehicle control or carboplatin (0-100 μg/ml) alone, or in combination with LY294002 (0-20 μM). Treatments were removed after 18h and cells were incubated for 4 hr in medium containing 5 μCi/ml of [^3H] thymidine. Medium was removed and cells were disrupted by sonication in phosphate buffered saline (PBS). An aliquot of the sonicated solution of PBS was loaded onto a DEAE filtration plate (Millipore, Bedford, Mass.), and individual filters with bound DNA were collected for scintillation counting. Data was normalized to total DNA per well and was determined by a SYBR green fluorescent assay (Nilsson E E, Westfall S D, McDonald C, Ligon T, Sadler-Riggleman I, Skinner M K. An in vivo mouse reporter gene (human secreted alkaline phosphatase) model to monitor ovarian tumor growth and response to therapeutics. Cancer Chemother Pharmacol 2002; 49(2):93-100).

[13] = tested on: OCC1-SEAP-12 ovarian cancer cells; test: Cell survival by DNA content of culture wells (Example III); format: cell-based, human
Protocol: Cell survival was assessed as cell number remaining in culture following exposure to treatments. The DNA content of individual culture wells was used as an indication of cell number. Cells plated in 24 well culture plates were allowed to approach confluence (80%) in Ham's F-12 medium plus 10% BCS. […] Media aliquots were taken when appropriate for SEAP analysis. The DNA was measured fluorometrically as previously described (Nilsson […], Ligon […]. An in vivo mouse reporter gene (human secreted alkaline phosphatase) model to monitor ovarian tumor growth and response to therapeutics. Cancer Chemother Pharmacol 2002; 49(2):93-100). Briefly, the fluorescence of aliquots of sonicated cell suspensions into which SYBR Green I fluorescent dye (Molecular Probes, Eugene Oreg.) had been incorporated, was measured.

[14] = tested on: OCC1-SEAP-12 ovarian cancer cells; conditions: LY294002 alone (Westfall and Skinner 2005); cited from earlier work

Structure (SMILES): N.N.[Cl][Pt][Cl] [cisplatin]
- tumor growth by plasma SEAP compared to vehicle controls ([1]; 3 or 10 mg/kg cisplatin every 48-72 h over a 2-week period, intraperitoneal): decreased tumor growth
- difference in tumor growth between 3 and 10 mg/kg ([1]; cisplatin 3 vs 10 mg/kg): No difference

Structure (SMILES): CC(C)[C@]12O[C@H]1[C@@H]1O[C@]13[C@]1(O[C@H]1C[C@H]1C4=C(CC[C@@]13C)C(=O)OC4)[C@@H]2O [TPL, Triptolide]
- induction of active caspase-3 [2]: robust induction
- toxicity ([3]; TPL 0.5 mg/kg ip every other day over 5 days): no apparent toxicity
- mice expired within 24 hours ([3]; TPL 1.0 mg/kg intraperitoneal): 2 of 3
- SEAP values vs vehicle control ([3]; TPL 0.125, 0.25 or 0.5 mg/kg ip every other day over 5 days): not significant differences
- tumor burden vs vehicle control (FIG. 11) ([3]; high dose, short duration: TPL 0.5 mg/kg, carboplatin 60 mg/kg every other day for 5 days): no significant difference
- tumor burden as measured by SEAP levels vs vehicle control (FIG. 12) ([3]; low dose, long duration: TPL 0.15 mg/kg every day for 10 days, carboplatin 60 mg/kg every other day for 5 days): no significant difference
- inhibition of growth and metastasis of solid tumors [4]: potent
- decrease in cell survival (μg DNA/ml) compared to control cultures [5]: approximately 40%
- dose as share of the maximum tolerated dose [6]: 60%
- DNA laddering [7]: evident
- toxicity of dose [8]: lethal

Structure (SMILES): O=c1cc(N2CCOCC2)oc2c(-c3ccccc3)cccc12 [LY294002, 2-(4-morpholinyl)-8-phenyl-4H-1-benzopyran-4-one]
- time at which active 17 kDa caspase 3 appears [9]: 72 h
- Akt phosphorylation [10]: blocked basal levels
- abdominal swelling (FIG. 24) ([11]; physical appearance of mice after treatment): displayed abdominal swelling
- tumor size vs vehicle control (FIG. 23) ([11]; single agents: LY294002 50 mg/kg, carboplatin 60 mg/kg): no significant difference
- block of basal DNA synthesis [12]: 50%
- reduction of cell number ([13]; 5 μM LY294002, 48 hr incubation): 22%
- reduction of cell number ([13]; 10 μM LY294002, 48 hr incubation): 44%
- effect on ovarian cancer tumor progression [14]: negligible effects
